From patent US10098894B2, “Transdermal cream” (TherapeuticsMD, Inc., priority 2014, dated 2018)
≈ marks a conversion by molar mass, not a printed value. Read-outs that look alike come from different tables or passages of the source.

What was measured:
[1] = tested on: endometrium and vagina in ovariectomized rats; test: Estradiol-induced endometrium proliferation in ovariectomized rats (uterine weight, histology, histomorphometry); assay type: in vivo, rat; details: for Uterine weight compared to estradiol-only treatment group: Days 4-8, with estradiol
Method: Thirty-two 8-week-old, female, Crl:CD® rats underwent ovariectomy 2 weeks prior to the start of the study. Rats were randomly assigned to 4 groups of 8 rats each. Three of the groups received 3 μg/kg/day estradiol, subcutaneously (SC), for 8 days as well as a placebo cream, 10 mg/kg/day progesterone, SC, or 3.125 mg/day progesterone transdermally beginning on Day 4. The fourth group received saline, SC for 8 days and placebo cream beginning on Day 4. Two hours after the final dose on Day 8, the rats were humanely euthanized, uterine weights were measured, and the vagina and distal portions of the uterine horns were fixed and processed for histology and computer-aided morphometry. Study parameters are outlined in Table 22.

[2] = Exposure, tissue distribution and metabolite profile (progesterone, ALLO, ALLO-sulfate in plasma, salivary gland, uterus) in ovariectomized rats; assay type: in vivo; details: for Kp at 2 h: female, Crl:CD, uterus/plasma, read-out: Ratio of progesterone levels in the uterus to plasma; for Mean progesterone level in plasma / Mean progesterone level in salivary gland / Mean progesterone level in uterus: 2 hours after final dose Day 8
Method: Thirty-two 8-week-old, female, Crl:CD® rats underwent ovariectomy 2 weeks prior to study start. […] Plasma and tissue homogenates were analyzed for progesterone, ALLO, and ALLO-sulfate using LC-MS/MS.

[3] = Progesterone solubility study in different solvent systems; assay type: physicochemical; details: thermodynamic from solid, room temperature, visual
Method: Solubility of progesterone was determined on a visual basis by adding progesterone incrementally to a certain quantity of solvent at room temperature until a supersaturated solution was formed.

[4] = as above; assay type: physicochemical; details: oil or lipid, thermodynamic from solid; in CAPRYOL 90; solubility determined by HPLC

Q: Which “Effect of unopposed estradiol treatment on the uterus (organ weight, histology)” value ([1]; 3 μg/kg/day SC, 8 days) does the source give for `C[C@]12CC[C@@H]3c4ccc(O)cc4CC[C@H]3[C@@H]1CC[C@@H]2O` [estradiol, (17β)-estra-1,3,5(10)-triene-3,17-diol] here?
A: Its value is “hypertrophy”.

Q: For `CC(=O)[C@H]1CC[C@H]2[C@@H]3CCC4=CC(=O)CC[C@]4(C)[C@H]3CC[C@]12C` [progesterone, pregn-4-ene-3,20-dione], which Kp at 2 h ([2]; 10 mg/kg/day, rat, SC route) is on record?
A: The Kp at 2 h was 7.3.

Q: And the Kp at 2 h ([2]; topical, 3.13 mg/rat/day, transdermal route)?
A: Its Kp at 2 h is 12.

Q: And the “Mean progesterone level in plasma” value ([2]; rat, SC administration)?
A: Its value is 5.4 ng/mL/mg dose.

Q: What about the “Mean progesterone level in salivary gland” value ([2]; rat, SC administration) of the same compound?
A: The value was 5.9 ng/mL/mg dose.

Q: And the “Mean progesterone level in uterus” value ([2]; rat, SC administration)?
A: Its value is 39 ng/mL/mg dose.

Q: What about the “Levels of ALLO in the plasma, comparison of both routes of administration” value ([2]; rat, SC vs topical) of the same compound?
A: The value was “similar”.

Q: What about the “Sum of plasma levels of ALLO and ALLO-sulfate relative to plasma level of progesterone” value ([2]; rat, after topical dosing) of the same compound?
A: The value was “equivalent”.

Q: What about the “Mean tissue levels of ALLO and ALLO-sulfate, SC administration compared to topical administration” value ([2]; rat, all instances) of the same compound?
A: Its value is “higher”.

Q: What about the “Mean progesterone level in plasma” value ([2]; rat, topical administration (Table 16 formulation)) of the same compound?
A: Its value is 2.0 ng/mL/mg dose.

Q: What about the “Mean progesterone level in salivary gland” value ([2]; rat, topical administration) of the same compound?
A: Its value is 10 ng/mL/mg dose.

Q: What about the “Mean progesterone level in uterus” value ([2]; rat, topical administration) of the same compound?
A: Its value is 24 ng/mL/mg dose.

Q: What about the solubility ([3]; aqueous with cosolvent or surfactant or cyclodextrin, in 5% SLS) of the same compound?
A: The solubility was 6.6 mg/mL (≈ 21 mM).

Q: And the solubility ([3]; oil or lipid, in CAPRYOL PGMC)?
A: Its solubility is 82 mg/mL (≈ 261 mM).

Q: And the solubility ([3]; oil or lipid, in GLYCEROX 767)?
A: The solubility was 22.2 mg/mL (≈ 70.6 mM).

Q: What about the solubility ([3]; oil or lipid, in LABRAFAC PG) of the same compound?
A: Its solubility is 41 mg/mL (≈ 130 mM).

Q: What about the solubility ([3]; oil or lipid, in LAUROGLYCOL 90) of the same compound?
A: The solubility was 90.2 mg/mL (≈ 287 mM).

Q: And the solubility ([3]; oil or lipid, in LAUROGLYCOL FCC)?
A: The solubility was 60 mg/mL (≈ 191 mM).

Q: And the solubility ([3]; oil or lipid, in MIGLYOL 812 + D-L α Tocopherol Care (85:15))?
A: Its solubility is 38.2 mg/mL.

Q: What about the solubility ([3]; oil or lipid, in MIGLYOL 812 + D-L α Tocopherol Care (95:5)) of the same compound?
A: The solubility was 20.1 mg/mL.

Q: What about the solubility ([3]; oil or lipid, in MIGLYOL 812 + LABRAFAC PG (50:50)) of the same compound?
A: The solubility was 25.7 mg/mL.

Q: And the solubility ([3]; oil or lipid, in MIGLYOL 812 + LAUROGLYCOL 90 (25:75))?
A: The solubility was 47 mg/mL.

Q: What about the solubility ([3]; oil or lipid, in MIGLYOL 812 + LAUROGLYCOL 90 (50:50)) of the same compound?
A: Its solubility is 58.9 mg/mL.

Q: What about the solubility ([3]; oil or lipid, in MIGLYOL 812 + TRANSCUTOL (92.5:7.5)) of the same compound?
A: The solubility was 40.2 mg/mL.

Q: What about the solubility ([3]; oil or lipid, in MIGLYOL 812 + TRANSCUTOL (95:5)) of the same compound?
A: The solubility was 40.5 mg/mL.

Q: What about the solubility ([3]; oil or lipid, in MIGLYOL 812 + Vitamin E TPGS (91:9)) of the same compound?
A: The solubility was 45.2 mg/mL.

Q: And the solubility ([3]; oil or lipid, in MIGLYOL 812)?
A: Its solubility is 25 mg/mL (≈ 79.5 mM).

Q: And the solubility ([3]; oil or lipid, in MIGLYOL 829)?
A: The solubility was 41.3 mg/mL (≈ 131 mM).

Q: And the solubility ([3]; oil or lipid, in MIGLYOL 840)?
A: Its solubility is 41.7 mg/mL (≈ 133 mM).

Q: What about the solubility ([3]; oil or lipid, in Oleic Acid) of the same compound?
A: Its solubility is 62.2 mg/mL (≈ 198 mM).

Q: What about the solubility ([3]; oil or lipid, in Oleyl Alcohol) of the same compound?
A: Its solubility is 41.2 mg/mL (≈ 131 mM).

Q: What about the solubility ([3]; organic solvent or mixture, in Absolute Alcohol) of the same compound?
A: The solubility was 57 mg/mL (≈ 181 mM).

Q: And the solubility ([3]; organic solvent or mixture, in Dimethyl Isosorbide)?
A: The solubility was 92 mg/mL (≈ 293 mM).

Q: What about the solubility ([3]; organic solvent or mixture, in Propylene Glycol) of the same compound?
A: Its solubility is 10.5 mg/mL (≈ 33.4 mM).

Q: What about the solubility ([3]; organic solvent or mixture, in TRANSCUTOL) of the same compound?
A: Its solubility is 60.3 mg/mL (≈ 192 mM).

Q: And the solubility ([3]; organic solvent or mixture, in d-Limonene + TRANSCUTOL (25:75))?
A: Its solubility is 95.6 mg/mL.

Q: And the solubility ([3]; organic solvent or mixture, in d-Limonene + TRANSCUTOL (40:60))?
A: Its solubility is 102 mg/mL.

Q: What about the solubility ([3]; organic solvent or mixture, in d-Limonene + TRANSCUTOL (50:50)) of the same compound?
A: The solubility was 100 mg/mL.

Q: What about the solubility ([3]; organic solvent or mixture, in d-Limonene) of the same compound?
A: The solubility was 204 mg/mL (≈ 649 mM).

Q: And the “Endometrial gland density, transdermal as compared to SC progesterone” value [1]?
A: Its value is “significant increase”.

Q: What about the “Uterine weight compared to estradiol-only treatment group” value ([1]; progesterone 3.125 mg/day transdermally (formulation of Table 16)) of the same compound?
A: The value was “pronounced reduction”.

Q: And the “Uterine weight compared to estradiol-only treatment group” value ([1]; progesterone 10 mg/kg/day SC)?
A: Its value is “pronounced reduction”.

Q: And the “Endometrial gland density compared to unopposed estradiol” value ([1]; progesterone SC)?
A: Its value is “significant increase”.

Q: What about the “Luminal epithelial cell thickness compared to unopposed estradiol” value ([1]; progesterone SC) of the same compound?
A: The value was “significant reduction”.

Q: And the “Estrogen-specific cellular aspects in uterus and vagina (histology)” value ([1]; progesterone SC with estradiol)?
A: Its value is “not detected”.

Q: What about the “Endometrial gland density compared to unopposed estradiol” value ([1]; progesterone transdermally) of the same compound?
A: The value was “significant increase”.

Q: What about the “Luminal epithelial cell thickness compared to unopposed estradiol” value ([1]; progesterone transdermally) of the same compound?
A: Its value is “significant reduction”.

Q: What about the “Estrogen-specific cellular aspects in uterus and vagina (histology)” value ([1]; progesterone transdermally with estradiol) of the same compound?
A: Its value is “not detected”.

Q: And the solubility [4]?
A: The solubility was 112 mg/mL (≈ 355 mM).
